Measured values as given in PMC12274739, “Differential substrate degradation by super-degron: EGFP in wild-type mouse cells, PD-1 requires CRBN humanization” (iScience, 2025).
Several values for one entry are separate records, joined by “and”; a condition that tells them apart may be missing. Equal values may be shown once. Read-outs that look alike come from different tables or passages of the source.

What was measured:
[1] = system: mouse PD-1-mCherry-Sall4 tag; format: cell-based, human; conditions: Jurkat, 24 h
[2] = system: mouse PD-1-mCherry-IKZF full-length tag; conditions: Jurkat, 24 h
wild-type mESCs = test: Proteome assay in wild-type mESCs with IBR; format: cell-based, mouse
Description: Only SD was able to efficiently degrade EGFP even in the wild-type mouse cell lines. IKZF1/3 and several neo-substrates for CRBN were degraded in human cells but not in mouse cells, most likely because of the different amino acids in CRBN. However, the combination of SD and IBR or MZG degraded target proteins in both mouse and human cells. […] These 17 proteins are suspected to be novel substrates (data not shown). […] Moreover, general thalidomide analogs and CRBN have no neo-substrates in mouse cell lines.[25]

EGFP-SD [3] = format: cell-based, mouse; conditions: for ratio of bottom, mouse vs human cell line: EGFP-SD; for bottom vs top, EGFP-SD: IBR up to 1 μM
EGFP-SD (C-terminal SD) [4] = format: cell-based, mouse; conditions: Crbn+/I391V mESCs (h/mCRBN), transient, 24 h
EGFP-SD (C-terminal SD) [5] = biological target: EGFP-SD (C-terminal SD) (Aequorea victoria, UniProt P42212, F64L/H231L/S65T); format: cell-based, mouse; conditions: transient, 24 h; for DC50: read-out: DC50, EGFP-SD
SD-EGFP = SD-EGFP (Mus musculus, UniProt P42212+Q8C7D2, F64L/H231L/INS1V/S65T, form not given); format: cell-based
SD-EGFP (N-terminal SD) [6] = biological target: SD-EGFP (N-terminal SD) (Aequorea victoria, UniProt P42212, F64L/H231L/S65T); format: cell-based, mouse; conditions: transient, 24 h; for DC50: read-out: DC50, SD-EGFP
SD-EGFP (N-terminal SD) [7] = format: cell-based, mouse; conditions: Crbn+/I391V mESCs (h/mCRBN), transient, 24 h
SD-tagged EGFP = test: Degradation of SD-tagged EGFP in Crbn−/− (CRBN-KO) mESCs; format: cell-based, mouse; conditions: IBR up to 1 μM, 24 h
[8] = system: CD8+ and CD4+ T cells infiltrating the MC-38 microenvironment; test: Markers on T cells from MC-38 tumor microenvironment, flow cytometry day 9; format: in vivo, mouse
Procedure: Data are represented as mean ± standard error (SEM). The same experiment was repeated twice to confirm reproducibility. p-values were determined by two-way ANOVA multiple comparisons. ∗∗∗∗p < 0.0001 and ∗p = 0.0267. […] Data are represented as mean ± SEM. The same experiment was repeated twice to confirm reproducibility. p-values were determined by two-way ANOVA multiple comparisons. ∗∗∗∗p < 0.0001, ∗∗∗p = 0.0005, ∗∗p = 0.0067. […] Ratio of PD-1 positive cells and mean fluorescence intensity (MFI) of PD-1 (D), TIM-3 (E), and LAG-3 (F) on CD8^+ and CD4^+ T cells isolated from tumor microenvironments 9 days after the initiation of treatment are shown. Fluorescence intensity of each molecule was measured by flow cytometry, and the geometric MIFs of marker-positive cells were calculated. The data in two experiments were compiled. p-values were determined by the Brown-Forsythe and Welch ANOVA test. Different letters indicate statistically significant differences between groups (p < 0.05). Boxplots: hinges, 25th and 75th percentiles; middle line, median; whiskers, minimum to maximum value.
Next, the effects of SD-induced PD-1 reduction were compared with those of anti-PD-1 antibody treatment in vivo. […] CD3^+ T cells infiltrating the MC-38 microenvironment were analyzed on day 9 of treatment before the MC-38 tumor masses had shrunk with treatment and no longer provided sufficient T cells for FACS analyses.
Subsequently, we analyzed the proportion of exhaustion and activation marker-positive cells in each experimental group, as well as the expression levels of each marker in the marker-positive cells.
P-values were determined by one-way ANOVA with Tukey’s multiple comparisons. IBR: IBR-treated.
Samples are the same as Figure 7D. CrbnI391V/I391V mice were used for the experiments. Only PD-1 genotypes were shown in D. Pdcd1+/+/CrbnI391V/I391V control Ab: n = 11, Pdcd1+/+/CrbnI391V/I391V […]
E Expression analyses of PD-1, TIM-3, LAG-3, TIGIT and CX3CR1 on T cells by flow cytometry.
Cells in microenvironments were sorted by indicated gates. Dotted lines indicate isotype control. […]
PD-1 treatment. […] Different letters indicate statistically significant differences between groups (p < 0.05). Box plots: hinges, 25th and 75th percentiles; middle line, median; whiskers, minimum to maximum value.

EGFP-SD [9] = test: Degradation of stably expressed EGFP-SD in rat ESCs

Nc1cccc2c1C(=O)N(C1CCC(=O)NC1=O)C2=O (stereo not drawn) [POM, pomalidomide]
Bottom, PD-1 (FITC) ([1]; SALL4 tag, surface PD-1, no reagent = 1): 0.9333
effect on protein levels ([1]; Sall4 tag): did not reduce protein levels
Bottom, mCherry (mC) ([2]; mCherry, no reagent = 1): 0.6165
Bottom, PD-1 (FITC) ([2]; surface PD-1, no reagent = 1): 0.32 and 0.3218

O=C1CC[C@H](N2Cc3c(OCc4ccc(CN5CCOCC5)cc4)cccc3C2=O)C(=O)N1 [IBR, iberdomide]
downregulation of 11 EGFP-bound candidate proteins (wild-type mESCs; exogenously expressed in mESCs): none of them were downregulated by IBR
number of proteins with reduced expression (wild-type mESCs; wild-type mESCs, proteome assay, data not shown): 17
ratio of bottom, mouse vs human cell line (EGFP-SD [3]; EL4 vs Jurkat): 1.804
ratio of bottom, mouse vs human cell line (EGFP-SD [3]; NIH3T3 vs HEK293): 3.605
Bottom, EGFP-SD (EGFP-SD [3]; EL4, stable): 0.04356
DC50 (EGFP-SD [3]; EL4, stable): 0.0755 nM
bottom vs top, EGFP-SD (EGFP-SD [3]; EL4, stable): 0.057
Bottom, EGFP-SD (EGFP-SD [3]; NIH3T3, stable): 0.03706
DC50 (EGFP-SD [3]; NIH3T3, stable): 0.079 nM
bottom vs top, EGFP-SD (EGFP-SD [3]; NIH3T3, stable): 0.049
Bottom, EGFP-SD (EGFP-SD [3]; mouse ESCs, stable): 0.02573
DC50 (EGFP-SD [3]; mouse ESCs, stable): 0.221 nM
bottom vs top, EGFP-SD (EGFP-SD [3]; mouse ESCs, stable): 0.085
level to which EGFP-SD was suppressed (EGFP-SD [3]; mouse wild-type cell lines, IBR approximately 10^−2 μM to 10^−3 μM): 10%
Bottom, EGFP-SD (EGFP/mCherry MFI) (EGFP-SD (C-terminal SD) [4]): 0.01502
DC50 (EGFP-SD (C-terminal SD) [4]): 0.0707 nM
bottom vs top, EGFP-SD (EGFP-SD (C-terminal SD) [4]): 0.04
Bottom, EGFP-SD (EGFP/mCherry MFI) (EGFP-SD (C-terminal SD) [5]; B6J-S1 mESCs): 0.03557
bottom vs top, EGFP-SD (EGFP-SD (C-terminal SD) [5]; B6J-S1 mESCs): 0.10
Bottom, EGFP-SD (EGFP/mCherry MFI) (EGFP-SD (C-terminal SD) [5]; Crbn+/+ mESCs (mCRBN)): 0.04584
bottom vs top, EGFP-SD (EGFP-SD (C-terminal SD) [5]; Crbn+/+ mESCs (mCRBN)): 0.15
Bottom, EGFP-SD (EGFP/mCherry MFI) (EGFP-SD (C-terminal SD) [5]; CrbnI391V/I391V mESCs (hCRBN)): 0.007275
bottom vs top, EGFP-SD (EGFP-SD (C-terminal SD) [5]; CrbnI391V/I391V mESCs (hCRBN)): 0.03
DC50 (EGFP-SD (C-terminal SD) [5]; B6J-S1 mESCs): 0.815 nM
DC50 (EGFP-SD (C-terminal SD) [5]; Crbn+/+ mESCs (mCRBN)): 2.17 nM
DC50 (EGFP-SD (C-terminal SD) [5]; CrbnI391V/I391V mESCs (hCRBN)): 0.0654 nM
bottom vs top, SD-EGFP (SD-EGFP): 0.186 and 0.153 and 0.146 and 0.15 and 0.19
level to which SD-EGFP was suppressed (SD-EGFP): 20%
Bottom, SD-EGFP (EGFP/mCherry MFI) (SD-EGFP (N-terminal SD) [6]; B6J-S1 mESCs): 0.09529
bottom vs top, SD-EGFP (SD-EGFP (N-terminal SD) [6]; B6J-S1 mESCs): 0.24
Bottom, SD-EGFP (EGFP/mCherry MFI) (SD-EGFP (N-terminal SD) [6]; Crbn+/+ mESCs (mCRBN)): 0.113
bottom vs top, SD-EGFP (SD-EGFP (N-terminal SD) [6]; Crbn+/+ mESCs (mCRBN)): 0.25
Bottom, SD-EGFP (EGFP/mCherry MFI) (SD-EGFP (N-terminal SD) [6]; CrbnI391V/I391V mESCs (hCRBN)): 0.04953
bottom vs top, SD-EGFP (SD-EGFP (N-terminal SD) [6]; CrbnI391V/I391V mESCs (hCRBN)): 0.13
DC50 (SD-EGFP (N-terminal SD) [6]; B6J-S1 mESCs): 1.82 nM
DC50 (SD-EGFP (N-terminal SD) [6]; Crbn+/+ mESCs (mCRBN)): 6.06 nM
DC50 (SD-EGFP (N-terminal SD) [6]; CrbnI391V/I391V mESCs (hCRBN)): 0.0637 nM
Bottom, SD-EGFP (EGFP/mCherry MFI) (SD-EGFP (N-terminal SD) [7]): 0.07126
DC50 (SD-EGFP (N-terminal SD) [7]): 0.0784 nM
bottom vs top, SD-EGFP (SD-EGFP (N-terminal SD) [7]): 0.18
degradation of SD-tagged EGFP (SD-tagged EGFP): did not occur
TIM-3 in CD8+ T cells vs untreated ([8]; IBR: Pdcd1SD/SD/CrbnI391V/I391V, cell ratio and expression level, antibody: Pdcd1+/+/CrbnI391V/I391V, expression level): decreased
CX3CR1 in CD8+ T cells vs untreated ([8]; IBR: Pdcd1SD/SD/CrbnI391V/I391V, antibody: Pdcd1+/+/CrbnI391V/I391V, CX3CR1+ cell ratio): comparable between IBR-treated and untreated groups
LAG-3 and TIGIT in CD8+ T cells vs untreated ([8]; IBR: Pdcd1SD/SD/CrbnI391V/I391V, antibody: Pdcd1+/+/CrbnI391V/I391V, expression level): remained comparable
LAG-3 expression levels in CD4+ T cells ([8]; Pdcd1SD/SD/CrbnI391V/I391V): higher than those in the untreated group
PD-1 expression level in PD-1+ CD8+ T cells vs untreated ([8]; Pdcd1SD/SD/CrbnI391V/I391V, day 9): significant reduction
frequency / number of T cells infiltrating the MC-38 microenvironment ([8]; day 9 of treatment): did not differ
DC50 (EGFP-SD [9]; read-out: DC50, EGFP-SD, stable): 0.14 nM
Bottom, EGFP-SD (EGFP-SD [9]; stable): 0.0497
bottom vs top, EGFP-SD (EGFP-SD [9]; stable, IBR up to 1 μM): 0.083
